From the NIST ThermoML archive (doi:10.1016/j.tca.2006.11.008) come the findings set out here.

A short description of the data set: molar enthalpy of vaporization or sublimation. The settings on record: Crystal, Static calorimetry.

The structures appear in SMILES notation. Numbers after ± are expanded uncertainties.

With `NC(=O)N1CCCCC1` [1-piperidinecarboxamide], the molar enthalpy (386 K) worked out at 23.9 ± 0.311 kcal/mol. Turning to `NC(=O)C1CCNCC1` [4-piperidinecarboxamide], the molar enthalpy (426.8 K) stood at 29.5 ± 0.311 kcal/mol.

As for `NC(=O)C1CCCNC1` (stereo not drawn) [3-piperidinecarboxamide], the molar enthalpy (386 K) is 26.9 ± 0.311 kcal/mol.
